Earlier results in US7037910B2, “Azabicyclic heterocycles as cannabinoid receptor modulators” (Bristol-Myers Squibb, priority 2003, dated 2006).
Read-outs that look alike come from different tables or passages of the source.

Tests used:
[1] = chronic administration for two weeks
[2] = human subjects, 16 week trial period

SMILES: Cc1c(C(=O)NN2CCCCC2)nn(-c2ccc(Cl)cc2Cl)c1-c1ccc(I)cc1 [AM-251]
- body weight [1]: substantial body weight reduction

SMILES: Cc1c(C(=O)NN2CCCCC2)nn(-c2ccc(Cl)cc2Cl)c1-c1ccc(Cl)cc1 [SR-141716]
- body weight [2]: dose-dependently reduced body weight
